Results on four compounds are retold here after patent publication US20220184080A1 (Aerovate Therapeutics, Inc., priority 2019, published 2022).

The nature of this series: thermal stability of imatinib salt forms. Type of series: physicochemical. Particulars: method not described.
For the compound `O=S(=O)(O)CCO` [isethionate], the thermal stability result is “suitable thermal stability”.
To malate belongs “suitable thermal stability”; to malonate, “suitable thermal stability”.
With tartrate, the thermal stability result is “suitable thermal stability”.
